2 compounds from patent US20240197700A1, “Methods and Compositions for Treating Lysosomal Storage Disorders” (Sanford Health, priority 2021, published 2024) can be followed below.

One data set relates to Cln2^R207X mice. In words: SubC burden (immunohistochemistry) in brain of Cln2^R207X mice. The format is in vivo, mouse. To be noted: for Subunit C burden: somatosensory cortex. The method, then:
Specific experimental details are included in figure legends. In general, after collection and preparation, MEFs and PNCs were dosed with vehicle or AF38469 (40 nM, 400 nM. or 4 μM) on DIV3 and DIV5. On DIV7, cells were treated with the following dyes: Hoechst 33342 (1:1000 dilution), LysoTrackerT™ Red DND-99 (1:10,000 dilution), fixed, and imaged. Mice were given vehicle or AF38469 (78.125 μg/ml, 3.125 μg/ml, 0.3125 μg/ml or 0.03125 μg/ml equating approximately to 250 μg/mouse/day, 10 μg/mouse/day, 1 μg/mouse/day, and […], respectively, given a mouse's daily water intake of approximately 3.2 ml per day) in drinking water beginning at wean. Body weight was measured bi-weekly, and a force actimeter test was performed on Cln2^R207X mice at 10 weeks of age. Body weight was measured every month for Cln3^Δex7/8 mice. At 11 and 16 weeks of age, respectively, Cln2^R207X and Cln3^Δex7/8 mice along with age matched wild type control mice were CO2 euthanized and intracardially perfused with PBS. Brains were collected and placed on a 1 mm sagittal brain block. Brains were sliced at the midline and 3 mm right of the midline. One hemisphere was fixed in 4% PFA and sectioned at 50 microns on a vibratome. Immunohistochemistry was performed on free-floating sections. For mitochondrial ATP synthase subunit C (SubC), glial fibrillary acidic protein (GFAP), and cluster of differentiation 68 (CD68) immunolabeling, primary antibodies included anti-SubC (Abcam, ab181243; 1:1000), anti-GFAP (Dako, Z0334; 1:5000), anti-CD68 (AbD Serotec, MCA1957; 1:2000), and secondary antibodies included anti-rabbit biotinylated (Vector Labs, BA-1000 1:1000) and anti-rat (Vector Labs, BA-9400 1:1000). Coverslips were mounted on slides using antifade-mounting media and were stored in the dark before imaging. Sections were imaged and analyzed using an Aperio Digital Pathology Slide Scanner (AT2) and associated software. Images were extracted from S1BF of the somatosensory cortex and the VPM/VPL of the thalamus, with multiple images taken of multiple tissues from each animal.
Short-term chronic treatment with AF38469 reduces storage material burden in Cln2^R207X and Cln3^Δex7/8 mice. Beginning at wean, wild type and Cln2^R207X mice were treated with vehicle (0.2408% DMSO) or AF38469 (0.03125 μg/ml, 0.3125 μg/ml, 3.125 μg/ml, 78.125 μg/ml) continuously through the drinking water continuing until sacrifice at 11 weeks. […] Sections were imaged and analyzed using an Aperio Digital Pathology Slide Scanner (AT2) and associated software. […] Percent area of immunoreactivity were quantified using a threshold analysis in ImageJ™. […]

A short description of data set [1]: Stability of semaglutide in solution (vehicle formulation). The format is physicochemical. The settings on record: 4° C. The method, then: In in vitro models, semaglutide (Creative Peptides, Catalog #910463-68-2) was tested in concentrations of 10 nM, 100 nM, and 1 μM in 1% DMSO. Vehicle treated cells were dosed with 1% DMSO. In in vivo models, semaglutide (Creative Peptides, Catalog #910463-68-2) was tested in concentrations of 2.571 μg/mouse and 25.71 μg/mouse prepared using the vehicle formulation for a total injection volume of 0.2 ml. Compound was stable in solution for 56 days at 4° C. Semaglutide was utilized at 98% HPLC purity.

As for `Cc1cccc(NC(=O)c2ccc(C(F)(F)F)cc2C(=O)O)n1` [AF38469, 2-((6-methylpyridin-2-yl)carbamoyl)-5-(trifluoromethyl)benzoic acid], the “Subunit C burden” value with Cln2^R207X mice (0.03125 μg/ml, 0.3125 μg/ml in drinking water, 11 weeks) was “significantly decreased”; in the data set with Cln2^R207X mice (78.125 μg/ml in drinking water, 11 weeks) it was “significantly decreased”. Besides, the SubC burden result with Cln2^R207X mice (3.125 μg/ml, 78.125 μg/ml in drinking water, VPM/VPL of the thalamus, 11 weeks, vs vehicle Cln2^R207X) is recorded as “did not have an impact”. The SubC accumulation entry in the data set on Cln2^R207X mice (overall statement, short term treatment, Cln2^R207X) is on record as “reduces”.
With semaglutide, the stable in solution in data set [1] turned out to be 56 days.
